Experimental data reported in article PMC3701070 (PLoS ONE, 2013).

How the values were obtained:
Test in all cases: Cell growth assay
Assay type in all cases: cell-based
[1] = test system: A101D; conditions: Homo sapiens, 72 h, BRAF(V600E), RAS WT, 3-day, read-out: gIC50
Method: (§1) Growth was measured with CellTiter-Glo® (Promega) reagent per the manufacturer’s protocol, using a PerkinElmer EnVision™ reader at t = 0 and 72 h. IC50 values for cell growth inhibition (gIC50) were determined.
(§2) (PDF) Click here for additional data file.

[2] = test system: A427; conditions: Homo sapiens, A-427, 72 h; A427, RAF WT, RAS WT, 3-day; read-out: gIC50
Method: as §1, §2

[3] = test system: A431; conditions: Homo sapiens, A-431, 72 h; A431, RAF WT, RAS WT, 3-day; read-out: gIC50
Method: as §1, §2

[4] = test system: Be(2)C; conditions: Homo sapiens, 72 h, RAF WT, RAS WT, 3-day, read-out: gIC50
Method: as §1, §2

[5] = test system: C-4 I; conditions: Homo sapiens, 72 h, RAF WT, RAS WT, 3-day, read-out: gIC50
Method: as §1, §2

[6] = test system: C33A; conditions: Homo sapiens, C-33-A, 72 h, RAF WT, RAS WT, 3-day, read-out: gIC50
Method: as §1, §2

[7] = test system: CAL-27; conditions: Homo sapiens, 72 h; CAL-27, RAF WT, RAS WT, 3-day; read-out: gIC50
Method: as §1, §2

[8] = test system: CESS; conditions: Homo sapiens, 72 h, RAF WT, RAS WT, 3-day, read-out: gIC50
Method: as §1, §2

[9] = test system: CRO-AP2; conditions: Homo sapiens, 72 h; CRO-AP2, RAF WT, RAS WT, 3-day; read-out: gIC50
Method: as §1, §2

[10] = test system: GCT; conditions: Homo sapiens, 72 h, BRAF(V600E), RAS WT, 3-day, read-out: gIC50
Method: as §1, §2

[11] = test system: H4; conditions: Homo sapiens, 72 h; H4, RAF WT, RAS WT, 3-day; read-out: gIC50
Method: as §1, §2

[12] = test system: HT-1080; conditions: Homo sapiens, 72 h; HT-1080, RAF WT, RAS WT, 3-day; read-out: gIC50
Method: as §1, §2

[13] = test system: KHOS-240S; conditions: Homo sapiens, 72 h, RAF WT, RAS WT, 3-day, read-out: gIC50
Method: as §1, §2

[14] = test system: LS1034; conditions: Homo sapiens, LS-1034, 72 h; LS1034, RAF WT, KRAS(A146T), 3-day; read-out: gIC50
Method: as §1, §2

[15] = test system: NCI-H1563; conditions: Homo sapiens, 72 h; NCI-H1563, RAF WT, RAS WT, 3-day; read-out: gIC50
Method: as §1, §2

[16] = test system: NCI-H292; conditions: Homo sapiens, 72 h; NCI-H292, RAF WT, RAS WT, 3-day; read-out: gIC50
Method: as §1, §2

[17] = test system: NCI-H526; conditions: Homo sapiens, 72 h; NCI-H526, RAF WT, RAS WT, 3-day; read-out: gIC50
Method: as §1, §2

[18] = test system: OVCAR-3; conditions: Homo sapiens, 72 h; OVCAR-3, RAF WT, RAS WT, 3-day; read-out: gIC50
Method: as §1, §2

[19] = test system: OVCAR-5; conditions: Homo sapiens, 72 h; OVCAR-5, RAF WT, RAS WT, 3-day; read-out: gIC50
Method: as §1, §2

[20] = test system: RD-ES; conditions: Homo sapiens, 72 h, RAF WT, RAS WT, 3-day, read-out: gIC50
Method: as §1, §2

[21] = test system: SCC-13; conditions: Homo sapiens, 72 h; SCC-13, RAF WT, RAS WT, 3-day; read-out: gIC50
Method: as §1, §2

[22] = test system: SK-MEL-3; conditions: Homo sapiens, SK-MEL3, 72 h; SK-MEL-3, BRAF(V600E), RAS WT, 3-day; read-out: gIC50
Method: as §1, §2

[23] = test system: SKOV-3; conditions: Homo sapiens, SK-OV-3, 72 h; SKOV-3, RAF WT, RAS WT, 3-day; read-out: gIC50
Method: as §1, §2

[24] = test system: SNU-16; conditions: Homo sapiens, 72 h; SNU-16, RAF WT, RAS WT, 3-day; read-out: gIC50
Method: as §1, §2

[25] = test system: SW1417; conditions: Homo sapiens, 72 h; SW1417, BRAF(V600E), RAS WT, 3-day; read-out: gIC50
Method: as §1, §2

[26] = test system: SW1463; conditions: Homo sapiens, 72 h; SW1463, RAF WT, RAS WT, 3-day; read-out: gIC50
Method: as §1, §2

[27] = test system: SW480; conditions: Homo sapiens, 72 h; SW480, RAF WT, KRAS(G12V), 3-day; read-out: gIC50
Method: as §1, §2

[28] = test system: SW579; conditions: Homo sapiens, 72 h; SW579, RAF WT, RAS WT, 3-day; read-out: gIC50
Method: as §1, §2

[29] = test system: SW872; conditions: Homo sapiens, 72 h; SW872, BRAF(V600E), RAS WT, 3-day; read-out: gIC50
Method: as §1, §2

[30] = test system: T47D; conditions: Homo sapiens, 72 h, RAF WT, RAS WT, 3-day, read-out: gIC50
Method: as §1, §2

[31] = test system: U2OS; conditions: Homo sapiens, 72 h, RAF WT, RAS WT, 3-day, read-out: gIC50
Method: as §1, §2

[32] = test system: UACC-62; conditions: Homo sapiens, 72 h; UACC-62, BRAF(V600E), RAS WT, 3-day; read-out: gIC50
Method: as §1, §2

[33] = test system: UACC-812; conditions: Homo sapiens, 72 h; UACC-812, RAF WT, RAS WT, 3-day; read-out: gIC50
Method: as §1, §2

## CC(C)(C)c1nc(-c2cccc(NS(=O)(=O)c3c(F)cccc3F)c2F)c(-c2ccnc(N)n2)s1 [dabrafenib]
[1]
  IC50: 0.009 µM
[2]
  IC50: > 10 µM
[3]
  IC50: > 10 µM
[4]
  IC50: > 10 µM
[5]
  IC50: > 10 µM
[6]
  IC50: > 10 µM
[7]
  IC50: > 10 µM
[8]
  IC50: 0.497 µM
[9]
  IC50: > 10 µM
[10]
  IC50: > 10 µM
[11]
  IC50: 0.619 µM
[12]
  IC50: 2 µM
[13]
  IC50: > 10 µM
[14]
  IC50: > 10 µM
[15]
  IC50: > 10 µM
[16]
  IC50: > 10 µM
[17]
  IC50: > 10 µM
[18]
  IC50: > 10 µM
[19]
  IC50: > 10 µM
[20]
  IC50: > 10 µM
[21]
  IC50: > 10 µM
[22]
  IC50: 0.007 µM
[23]
  IC50: > 10 µM
[24]
  IC50: > 10 µM
[25]
  IC50: 0.158 µM
[26]
  IC50: > 10 µM
[27]
  IC50: > 10 µM
[28]
  IC50: > 10 µM
[29]
  IC50: 0.377 µM
[30]
  IC50: > 10 µM
[31]
  IC50: > 10 µM
[32]
  IC50: 0.001 µM
[33]
  IC50: > 10 µM
